We go through 21 molecules from patent US11963960B2 (Flash Therapeutics, LLC, priority 2020, dated 2024).

The assay addresses N-terminally GST-tagged HCK (75-526) (Homo sapiens (Human), UniProt P08631). Description: HCK Kinase Assay (ProFluor Src-Family Kinase Assay). The assay is classed as biochemical. To be noted: HCK inhibitory activity, 50 μM ATP; read-out: HCK Activity. The method, then:
The procedure of ProFluor Src-Family Kinase Assay (Promega, Cat. No. V1271) was then followed. To the reaction was added 5 μL Protease solution and the mixture was incubated for 60 minutes at room temperature (22-25° C.), followed by 5 μL Stabilizer solution. The fluorescence signal was read on an Envision multilabel plate reader (Perkin Elmer). The R110 was then read at an excitation wavelength of 485 nm and an emission wavelength of 530 nm. The AMC signal was read at an excitation wavelength of 355 nm and an emission wavelength of 460 nm.

N-terminally GST-tagged HCK (75-526), sequence (P08631 75-526): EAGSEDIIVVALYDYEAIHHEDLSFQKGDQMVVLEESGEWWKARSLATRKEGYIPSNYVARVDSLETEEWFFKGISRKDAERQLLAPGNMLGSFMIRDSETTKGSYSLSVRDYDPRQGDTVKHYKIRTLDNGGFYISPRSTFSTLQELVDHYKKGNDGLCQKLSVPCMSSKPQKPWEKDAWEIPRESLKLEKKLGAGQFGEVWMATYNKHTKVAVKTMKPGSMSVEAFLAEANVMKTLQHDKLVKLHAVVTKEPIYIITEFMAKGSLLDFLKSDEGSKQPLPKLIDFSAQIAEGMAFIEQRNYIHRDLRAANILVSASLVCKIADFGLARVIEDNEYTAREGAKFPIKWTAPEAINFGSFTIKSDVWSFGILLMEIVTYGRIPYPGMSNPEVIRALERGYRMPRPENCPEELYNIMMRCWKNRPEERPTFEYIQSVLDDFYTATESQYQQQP

Consider `CC1(C)CN([C@H]2CC[C@H](n3nc(-c4ccc(Oc5ccccc5)cc4F)c4c(N)ncnc43)CC2)CCN1` [Example 28, 1-((trans)-4-(3,3-dimethylpiperazin-1-yl)cyclohexyl)-3-(2-fluoro-4-phenoxyphenyl)-1H-pyrazolo[3,4-d]pyrimidin-4-amine], for which the IC50 fell in the range of 50 to 250 nM. As for `CC[C@H]1CN([C@H]2CC[C@H](n3cc(-c4ccc(Oc5ccccc5)cc4)c4c(N)ncnc43)CC2)CCN1` [Example 29, 7-((trans)-4-((S)-3-ethylpiperazin-1-yl)cyclohexyl)-5-(4-phenoxyphenyl)-7H-pyrrolo[2,3-d]pyrimidin-4-amine], the IC50 fell in the range of 50 to 250 nM. As for `CC[C@H]1CN([C@H]2CC[C@@H](n3cc(-c4ccc(Oc5ccccc5)cc4)c4c(N)ncnc43)CC2)CCN1` [Example 30, 7-((cis)-4-((S)-3-ethylpiperazin-1-yl)cyclohexyl)-5-(4-phenoxyphenyl)-7H-pyrrolo[2,3-d]pyrimidin-4-amine], the figure is 50 to 250 nM; as for `CC[C@H]1CN([C@H]2CC[C@H](n3nc(-c4ccc(Oc5ccccc5)cc4F)c4c(N)ncnc43)CC2)CCN1` [Example 31, 1-((trans)-4-((S)-3-ethylpiperazin-1-yl)cyclohexyl)-3-(2-fluoro-4-phenoxyphenyl)-1H-pyrazolo[3,4-d]pyrimidin-4-amine], < 50 nM; as for `CC[C@H]1CN([C@H]2CC[C@@H](n3nc(-c4ccc(Oc5ccccc5)cc4F)c4c(N)ncnc43)CC2)CCN1` [Example 32, 1-((cis)-4-((S)-3-ethylpiperazin-1-yl)cyclohexyl)-3-(2-fluoro-4-phenoxyphenyl)-1H-pyrazolo[3,4-d]pyrimidin-4-amine], 50 to 250 nM. The value for `CN1CCN([C@H]2CC[C@H](n3cc(-c4ccc(Oc5ccccc5)cc4)c4c(N)ncnc43)CC2)CC1CO` (stereo partly drawn) [Example 33, (4-((trans)-4-(4-amino-5-(4-phenoxyphenyl)-7H-pyrrolo[2,3-d]pyrimidin-7-yl)cyclohexyl)-1-methylpiperazin-2-yl)methanol] was < 50 nM; that for `CN1CCN([C@H]2CC[C@H](n3cc(-c4ccc(Oc5ccccc5)cc4)c4c(N)ncnc43)CC2)CC1C(=O)O` (stereo partly drawn) [Example 34, 4-((trans)-4-(4-amino-5-(4-phenoxyphenyl)-7H-pyrrolo[2,3-d]pyrimidin-7-yl)cyclohexyl)-1-methylpiperazine-2-carboxylic acid] was < 50 nM. `Nc1ncnc2c1c(-c1ccc(Oc3ccccc3)cc1)cn2[C@H]1CC[C@H](N2CCNC3(CC3)C2)CC1` [Example 35, 7-((trans)-4-(4,7-diazaspiro[2.5]octan-7-yl)cyclohexyl)-5-(4-phenoxyphenyl)-7H-pyrrolo[2,3-d]pyrimidin-4-amine]: the IC50 was < 50 nM.

On to `Nc1ncnc2c1c(-c1ccc(Oc3ccccc3)cc1)cn2[C@H]1CC[C@@H](N2CCNC3(CC3)C2)CC1` [Example 36, 7-((cis)-4-(4,7-diazaspiro[2.5]octan-7-yl)cyclohexyl)-5-(4-phenoxyphenyl)-7H-pyrrolo[2,3-d]pyrimidin-4-amine], for which the IC50 lay within 50 to 250 nM. Regarding `Nc1ncnc2c1c(-c1ccc(Oc3ccccc3)cc1)cn2C1CCC(N2CC3CCC2CN3)CC1` (stereo not drawn) [Example 37, 7-(4-(2,5-diazabicyclo[2.2.2]octan-2-yl)cyclohexyl)-5-(4-phenoxyphenyl)-7H-pyrrolo[2,3-d]pyrimidin-4-amine], the IC50 is < 50 nM.

Regarding `Nc1ncnc2c1c(-c1ccc(Oc3ccccc3)cc1)cn2[C@H]1CC[C@H](N2CCN(N)CC2)CC1` [Example 38, 7-((trans)-4-(4-aminopiperazin-1-yl)cyclohexyl)-5-(4-phenoxyphenyl)-7H-pyrrolo[2,3-d]pyrimidin-4-amine], the IC50 was < 50 nM. With `Nc1ncnc2c1c(-c1ccc(Oc3ccccc3)cc1)cn2[C@H]1CC[C@@H](N2CCN(N)CC2)CC1` [Example 39, 7-((cis)-4-(4-aminopiperazin-1-yl)cyclohexyl)-5-(4-phenoxyphenyl)-7H-pyrrolo[2,3-d]pyrimidin-4-amine], the IC50 is < 50 nM. As for `CC(=O)NN1CCN([C@H]2CC[C@H](n3cc(-c4ccc(Oc5ccccc5)cc4)c4c(N)ncnc43)CC2)CC1` [Example 40, N-(4-((trans)-4-(4-amino-5-(4-phenoxyphenyl)-7H-pyrrolo[2,3-d]pyrimidin-7-yl)cyclohexyl)piperazin-1-yl)acetamide], the figure is < 50 nM. The value for `CC(=O)NN1CCN([C@H]2CC[C@@H](n3cc(-c4ccc(Oc5ccccc5)cc4)c4c(N)ncnc43)CC2)CC1` [Example 41, N-(4-((cis)-4-(4-amino-5-(4-phenoxyphenyl)-7H-pyrrolo[2,3-d]pyrimidin-7-yl)cyclohexyl)piperazin-1-yl)acetamide] was < 50 nM. As for `Nc1ncnc2c1c(-c1ccc(Oc3ccccc3)cc1)cn2[C@H]1CC[C@H](N2CCN3C(=O)CCC3C2)CC1` (stereo partly drawn) [Example 42, 2-((trans)-4-(4-amino-5-(4-phenoxyphenyl)-7H-pyrrolo[2,3-d]pyrimidin-7-yl)cyclohexyl)hexahydropyrrolo[1,2-a]pyrazin-6(2H)-one], the IC50 lay within 50 to 250 nM. As for `Nc1ncnc2c1c(-c1ccc(Oc3ccccc3)cc1)cn2[C@H]1CC[C@@H](N2CCN3C(=O)CCC3C2)CC1` (stereo partly drawn) [Example 43, 2-((cis)-4-(4-amino-5-(4-phenoxyphenyl)-7H-pyrrolo[2,3-d]pyrimidin-7-yl)cyclohexyl)hexahydropyrrolo[1,2-a]pyrazin-6(2H)-one], the figure is < 50 nM. The value for `Nc1ncnc2c1c(-c1ccc(Oc3ccccc3)cc1)cn2[C@H]1CC[C@H](N2CCN3CCCC3C2)CC1` (stereo partly drawn) [Example 44, 7-((trans)-4-(hexahydropyrrolo[1,2-a]pyrazin-2(1H)-yl)cyclohexyl)-5-(4-phenoxyphenyl)-7H-pyrrolo[2,3-d]pyrimidin-4-amine] was < 50 nM; that for `Nc1ncnc2c1c(-c1ccc(Oc3ccccc3)cc1)cn2[C@H]1CC[C@@H](N2CCN3CCCC3C2)CC1` (stereo partly drawn) [Example 45, 7-((cis)-4-(hexahydropyrrolo[1,2-a]pyrazin-2(1H)-yl)cyclohexyl)-5-(4-phenoxyphenyl)-7H-pyrrolo[2,3-d]pyrimidin-4-amine] was 250 to 10000 nM; that for `Nc1ncnc2c1c(-c1ccc(Oc3ccccc3)cc1)cn2[C@H]1CC[C@H](N2CCN3CCC[C@H]3C2)CC1` [Example 46, 7-((trans)-4-((S)-hexahydropyrrolo[1,2-a]pyrazin-2(1H)-yl)cyclohexyl)-5-(4-phenoxyphenyl)-7H-pyrrolo[2,3-d]pyrimidin-4-amine] was < 50 nM. As for `Nc1ncnc2c1c(-c1ccc(Oc3ccccc3)cc1)cn2[C@H]1CC[C@@H](N2CCN3CCC[C@H]3C2)CC1` [Example 47, 7-((cis)-4-((S)-hexahydropyrrolo[1,2-a]pyrazin-2(1H)-yl)cyclohexyl)-5-(4-phenoxyphenyl)-7H-pyrrolo[2,3-d]pyrimidin-4-amine], the figure is 50 to 250 nM; as for `Nc1ncnc2c1c(-c1ccc(Oc3ccccc3)cc1)cn2[C@H]1CC[C@H](N2CCN3CCC[C@@H]3C2)CC1` [Example 48, 7-((trans)-4-((R)-hexahydropyrrolo[1,2-a]pyrazin-2(1H)-yl)cyclohexyl)-5-(4-phenoxyphenyl)-7H-pyrrolo[2,3-d]pyrimidin-4-amine], < 50 nM.
